Experiments:
[1] = molecular target: T1, PI3K-α (PIK3CA) wild-type (WT) (p110α/p85α complex) (Homo sapiens, UniProt P42336); experiment: PI3K-Alpha kinase (PIK3CA) biochemical ADP-Glo assay, wild-type; settings: 20 uM ATP, 1 h pre-incubation
T1 construct: Recombinant, catalytically active human full length PIK3KA Wild-type and H1047R mutant were purchased as 1:1 complex; 6xHis (N); purchased EMD Millipore Sigma 14-602M
From the text: (§1) PI3K-Alpha kinase (PIK3CA) activity, wild-type and H1047R mutant and determining IC50 values for inhibitors
(§2) Recombinant, catalytically active human full length PIK3KA Wild-type and H1047R mutant were purchased as 1:1 complex of N-terminal 6× his tagged p110α (catalytic) and untagged p85α (regulatory subunit) from EMD Millipore Sigma (cat. no. 14-602M and 14-792M, respectively). PIP2diC8 (Avanti Polar Lipids Inc., cat. no. 850185) or Soy PI (Avanti Polar Lipids Inc., cat. No. 840044P) was used as lipid substrate. PIP2diC8 or PI lyophilized powder was dissolved in milliQ water to a concentration of 1 mM just before use. 10 mM stock compounds in DMSO were serially diluted 1:3 to generate a 10-point curve and plated using an acoustic liquid handler system (Echo 550 series instrument, Labcyte). A 10× intermediate compound plate (200 uM starting compound concentration and 10% DMSO) was prepared before starting the reaction. A typical reaction mixture (50 uL) comprised 40 mM HEPES buffer, pH 7.4, 25 mM MgCl2, 0.01% v/v triton-X-100, 1% v/v DMSO, 20 mM NaCl, 1-5 nM WT or H1047R PI3K protein, 20 uM ATP, and 50 uM PIP2diC8 or Soy PI. 1% DMSO buffer alone without test compound was employed as MAX control (full activity in the absence of any inhibitor), and no enzyme control was used to determine the level of background Adenosine 5′-diphosphate (ADP) (MIN control). First, Wild-type (WT) and H1047R mutant protein in kinase buffer with all components except ATP were incubated with or without compound at 27° C. for 1 h. After the pre-incubation, the reaction was initiated by the addition of 20 uL of 50 uM ATP (20 uM final concentration). The reaction was allowed to proceed until about 10% conversion of ATP (2 uM ADP) at 27° C. After that time, 5 uL of reaction was mixed with 5 uL of ADP-Kinase Glo Reagent (ADP-Glo Kinase assay kit, Promega cat. no. V9102) supplemented with MgCl2 10 mM to stop the reaction and deplete the remaining ATP for 40 min at room temperature. Then, 10 uL of Kinase Detection Reagent (ADP-Glo Kinase assay kit, Promega cat. no. V9102) was added to simultaneously convert ADP to ATP and allow the newly synthesized ATP to be measured using a luciferase/luciferin reaction. After 30 min at room temperature the light generated was measured using a luminometer (EnVision plate reader, Perkin Elmer). Process data through Genedata-Screener tool. Relative IC50 values are determined using luminescence units by calculating percent inhibition with respect to on-plate “MIN” and “MAX” controls. Data was analyzed using a 4-parameter nonlinear logistic equation (four-parameter logistic concentration-response curve): Y=bot+[(top−bot)/1+(x/IC50)slope] where Y=% inhibition, X=concentration yielding y% inhibition, Bottom=minimum value of y attained by curve, Top=maximum value of y attained by curve and Slope=steepness of curve at IC50. % Inh=[(median Max−x/median Max−median Min)]·100 IC50: concentration of compound that reduces a given response (ligand binding, enzyme response) by 50%. IC50 relative: concentration giving half the compound's maximum response.
(§3) For IC50 values shown in Table A, “A” means IC50<0.5 μM; “B” means IC50 ranging between 0.5 μM and 1.0 μM; “C” means IC50 ranging between 1 μM and 5 μM; “D” means IC50 ranging between 5 μM and 10 μM; “E” means IC50>10 μM.

[2] = molecular target: T2, PI3K-α (PIK3CA) H1047R mutant (p110α/p85α complex) (Homo sapiens, UniProt P42336, H1047R); experiment: PI3K-Alpha kinase (PIK3CA) biochemical ADP-Glo assay, H1047R mutant; settings: 20 uM ATP, 1 h pre-incubation
T2 construct: Recombinant, catalytically active human full length PIK3KA Wild-type and H1047R mutant were purchased as 1:1 complex; 6xHis (N); purchased EMD Millipore Sigma 14-792M
T2 sequence (P42336 whole entry H1047R): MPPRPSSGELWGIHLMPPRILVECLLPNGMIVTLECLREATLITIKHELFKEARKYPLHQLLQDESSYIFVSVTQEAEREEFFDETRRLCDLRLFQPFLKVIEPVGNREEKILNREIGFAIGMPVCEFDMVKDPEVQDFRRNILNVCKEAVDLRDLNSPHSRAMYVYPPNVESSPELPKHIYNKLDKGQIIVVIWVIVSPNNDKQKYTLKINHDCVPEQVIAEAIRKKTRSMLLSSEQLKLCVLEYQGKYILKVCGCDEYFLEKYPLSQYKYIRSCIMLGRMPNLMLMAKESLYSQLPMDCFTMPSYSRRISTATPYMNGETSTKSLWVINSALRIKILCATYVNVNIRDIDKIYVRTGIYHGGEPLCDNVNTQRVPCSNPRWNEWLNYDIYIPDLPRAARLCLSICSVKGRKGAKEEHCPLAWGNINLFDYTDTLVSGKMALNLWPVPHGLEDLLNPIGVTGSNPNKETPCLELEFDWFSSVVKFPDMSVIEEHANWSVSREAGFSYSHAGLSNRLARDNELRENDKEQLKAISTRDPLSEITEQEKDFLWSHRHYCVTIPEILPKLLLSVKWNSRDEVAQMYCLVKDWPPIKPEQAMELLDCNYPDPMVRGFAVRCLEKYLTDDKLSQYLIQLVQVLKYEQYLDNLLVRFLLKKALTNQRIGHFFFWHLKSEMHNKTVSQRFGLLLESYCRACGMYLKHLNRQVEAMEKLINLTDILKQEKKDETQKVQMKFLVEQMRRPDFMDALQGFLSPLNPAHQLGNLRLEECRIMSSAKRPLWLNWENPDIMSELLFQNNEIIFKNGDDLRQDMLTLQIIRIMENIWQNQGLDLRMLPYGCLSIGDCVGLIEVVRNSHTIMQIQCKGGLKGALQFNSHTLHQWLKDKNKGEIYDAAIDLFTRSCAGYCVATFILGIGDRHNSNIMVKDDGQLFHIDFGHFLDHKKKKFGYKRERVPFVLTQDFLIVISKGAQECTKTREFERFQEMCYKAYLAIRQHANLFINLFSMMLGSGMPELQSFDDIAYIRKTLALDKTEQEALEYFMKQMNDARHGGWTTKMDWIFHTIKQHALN
T2 sequence (P27986 whole entry partner): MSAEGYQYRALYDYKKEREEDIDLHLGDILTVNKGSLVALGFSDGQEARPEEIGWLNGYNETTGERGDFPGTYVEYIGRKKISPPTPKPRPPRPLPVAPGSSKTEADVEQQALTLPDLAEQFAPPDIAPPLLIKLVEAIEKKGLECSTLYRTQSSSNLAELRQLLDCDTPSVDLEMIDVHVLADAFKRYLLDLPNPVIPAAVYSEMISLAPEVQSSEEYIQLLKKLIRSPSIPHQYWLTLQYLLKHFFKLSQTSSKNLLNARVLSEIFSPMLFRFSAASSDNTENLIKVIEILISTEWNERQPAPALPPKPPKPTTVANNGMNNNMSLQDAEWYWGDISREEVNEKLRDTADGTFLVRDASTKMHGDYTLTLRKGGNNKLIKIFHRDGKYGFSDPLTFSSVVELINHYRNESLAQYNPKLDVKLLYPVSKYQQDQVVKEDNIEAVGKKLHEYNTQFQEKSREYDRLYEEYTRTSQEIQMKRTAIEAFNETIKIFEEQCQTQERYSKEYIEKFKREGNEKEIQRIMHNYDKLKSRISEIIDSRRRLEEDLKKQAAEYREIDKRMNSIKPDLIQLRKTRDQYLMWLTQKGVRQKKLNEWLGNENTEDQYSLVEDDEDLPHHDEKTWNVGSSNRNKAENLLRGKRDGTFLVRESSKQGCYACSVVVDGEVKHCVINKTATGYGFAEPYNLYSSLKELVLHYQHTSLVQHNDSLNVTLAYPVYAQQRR
From the text: as §1, §2, §3

[3] = PIP2diC8 lipid substrate (footnote 1)

IC50 ([1]; Soy PI lipid substrate) [µM] | IC50 ([2]; Soy PI lipid substrate) [µM] | IC50 [1, 3] [µM] | IC50 [2, 3] [µM] | Structure (SMILES)
> 10 | < 0.5 |  |  | Cc1cc(C(C)Nc2ccccc2C(=O)O)c2oc(C3CCC(F)(F)CC3)cc(=O)c2c1 (single isomer, unassigned; isomer 2) [Example 15, 2-[1-[2-(4,4-Difluorocyclohexyl)-6-methyl-4-oxo-chromen-8-yl]ethylamino]benzoic acid, Isomer 2]
 |  | > 10 | > 10 | Cc1cc(C(C)Nc2ccccc2C(=O)O)c2oc(C3CCC(C)(C)CC3)cc(=O)c2c1 (single isomer, unassigned; isomer 2) [Example 11, 2-[1-[2-(4,4-Dimethylcyclohexyl)-6-methyl-4-oxo-chromen-8-yl]ethylamino]benzoic acid, Isomer 2]
> 10 | < 0.5 |  |  | Cc1cc(C(C)Nc2ccccc2C(=O)O)c2oc(C3(c4ccccc4)CC3)cc(=O)c2c1 (stereo not drawn) [Example 7, 2-[1-[6-Methyl-4-oxo-2-(1-phenylcyclopropyl)chromen-8-yl]ethylamino]benzoic acid; 2,2,2-trifluoroacetic acid]
 |  | > 10 | > 10 | CC(Nc1ccccc1C(=O)O)c1cccc2c(=O)cc(C3CCCCC3)oc12 (single isomer, unassigned; isomer 1) [Example 12, 2-[1-(2-Cyclohexyl-4-oxo-chromen-8-yl)ethylamino]benzoic acid, Isomer 1]
1 to 5 | < 0.5 |  |  | Cc1cc(C(C)Nc2ccccc2C(=O)O)c2oc(C3Cc4ccccc4C3)c(C)c(=O)c2c1 (single isomer, unassigned; isomer 1) [Example 21, 2-[1-(2-Indan-2-yl-3,6-dimethyl-4-oxo-chromen-8-yl)ethylamino]benzoic acid, Isomer 1]

More lines, now with the values behind:

Structure (SMILES) | IC50 ([1]; Soy PI lipid substrate) [µM] | IC50 ([2]; Soy PI lipid substrate) [µM] | IC50 [1, 3] [µM] | IC50 [2, 3] [µM]
Cc1cc(C(C)Nc2ccccc2C(=O)O)c2oc(C3CCC(F)(F)CC3)c(C)c(=O)c2c1 (single isomer, unassigned; isomer 2) [Example 17, 2-[1-[2-(4,4-Difluorocyclohexyl)-3,6-dimethyl-4-oxo-chromen-8-yl]ethylamino]benzoic acid, Isomer 2] | > 10 | > 10 |  | 
Cc1cc(C(C)Nc2ccccc2C(=O)O)c2oc(C3CCC(F)(F)CC3)cc(=O)c2c1 (single isomer, unassigned; isomer 1) [Example 14, 2-[1-[2-(4,4-Difluorocyclohexyl)-6-methyl-4-oxo-chromen-8-yl]ethylamino]benzoic acid, Isomer 1] | > 10 | > 10 |  | 
Cc1cc(C(C)Nc2ccccc2C(=O)O)c2oc(C3Cc4ccccc4C3)c(C)c(=O)c2c1 (single isomer, unassigned; isomer 2) [Example 22, 2-[1-(2-Indan-2-yl-3,6-dimethyl-4-oxo-chromen-8-yl)ethylamino]benzoic acid, Isomer 2] | > 10 | > 10 |  | 
Cc1cc(C(C)Nc2ccccc2C(=O)O)c2oc(C3CCCCC3)cc(=O)c2c1 (single isomer, unassigned; isomer 1) [Example 8, 2-[1-(2-Cyclohexyl-6-methyl-4-oxo-chromen-8-yl)ethylamino]benzoic acid, Isomer 1] |  |  | > 10 | 1 to 5
Cc1cc(C(C)Nc2ccccc2C(=O)O)c2oc(C3Cc4ccccc4C3)cc(=O)c2c1 (single isomer, unassigned; isomer 2) [Example 19, 2-[1-(2-Indan-2-yl-6-methyl-4-oxo-chromen-8-yl)ethylamino]benzoic acid, Isomer 2] | 1 to 5 | < 0.5 |  | 
Cc1cc(C(C)Nc2ccccc2C(=O)O)c2oc(C3CCC(C)(C)CC3)cc(=O)c2c1 (single isomer, unassigned; isomer 1) [Example 10, 2-[1-[2-(4,4-Dimethylcyclohexyl)-6-methyl-4-oxo-chromen-8-yl]ethylamino]benzoic acid, Isomer 1] |  |  | 1 to 5 | < 0.5
Cc1cc(C(C)Nc2ccccc2C(=O)O)c2oc(C3CCCCC3)cc(=O)c2c1 (single isomer, unassigned; isomer 2) [Example 9, 2-[1-(2-Cyclohexyl-6-methyl-4-oxo-chromen-8-yl)ethylamino]benzoic acid, Isomer 2] |  |  | < 0.5 | < 0.5
Cc1cc(C(C)Nc2ccccc2C(=O)O)c2oc(C3CCC(F)(F)CC3)c(C)c(=O)c2c1 (single isomer, unassigned; isomer 1) [Example 16, 2-[1-[2-(4,4-Difluorocyclohexyl)-3,6-dimethyl-4-oxo-chromen-8-yl]ethylamino]benzoic acid, Isomer 1] | 0.5 to 1 | < 0.5 |  | 
Cc1cc(C(C)Nc2ccccc2C(=O)O)c2oc(C3Cc4ccccc4C3)cc(=O)c2c1 (single isomer, unassigned; isomer 1) [Example 18, 2-[1-(2-Indan-2-yl-6-methyl-4-oxo-chromen-8-yl)ethylamino]benzoic acid, Isomer 1] | > 10 | 1 to 5 |  | 
CC(Nc1ccccc1C(=O)O)c1cccc2c(=O)cc(C3CCCCC3)oc12 (single isomer, unassigned; isomer 2) [Example 13, 2-[1-(2-Cyclohexyl-4-oxo-chromen-8-yl)ethylamino]benzoic acid, Isomer 2] | > 10 | < 0.5 |  | 
